In one assay the target is T1, FGFR2 (Homo sapiens, UniProt P21802).
T1 construct: made in house; host or cells: E. coli derived from BL21, infected with T7 phage
Put plainly: Kinase binding assay (kinase-tagged T7 phage, affinity beads, qPCR readout), FGFR2. The note with it: FGFR binding data. In short, it runs like this:
(§1)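 Phage lysate kinase + liganded magnetic beads + compound, 11-pt 3-fold series, 0.9% DMSO; 1 h RT shaking. Wash, elute 30 min with 0.5 μM non-biotinylated ligand; qPCR readout. Hill fit, slope −1 → Kd.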
(In general: In qPCR the cycle at which signal appears reflects the starting amount.)

For assay [1], the system named is RT112/84 (Bladder Cancer), FGFR3-TACC3 fusion. Put plainly: Cancer cell viability assay (Cell Titer-Glo), RT112/84. The note with it: Homo sapiens, RT112/84 cells, 72 hours. It is filed as cell-based. The text has this:
(§2) RT112/84, UM-UC-14, SNU-16 and KG-1 Cancer Cell Line Cell Viability Assays
(§3) To detect the change of intracellular ATP by Cell Titer-Glo@ and to evaluate the inhibitory effect of the compounds on cancer cell lines by determining the in vitro IC50 value of the compounds.
(§4) Cell Titer-Glo@ 2.0 Luminescent cell viability assay reagent was purchased from Promega (Madison, WI). RT112/84, SNU-16, and KG-1 cell lines were purchased from American Type Culture Collection (Manassas, VA). UM-UC-14 cell line was purchased from Sigma (St. Louis, MO). RT112/84, UM-UC-14, SNU-16, and KG-1 cells were cultured in RPMI1640 media supplemented with 10% fetal bovine serum. Cultures were maintained at 37° C. in a humidified atmosphere of 5% CO2 and 95% air.
(§5) Cell Viability Assay Procedure: Cells were plated in 96-well clear bottom/white plates (Corning #3903) at 10,000 cells/well in 100 μl of media, incubated overnight. The next day, test compound DMSO stock solutions were made at 10 mM and 2 μM final concentration. Compounds were then added to cells in a 9-dose, […] dilution series starting at 30 μM with an HP 300e Digital Dispenser (each dose was applied in triplicate). DMSO was backfilled to each well up to 301 nL total volume of test compound+DMSO, and a total of 301 nL DMSO was added to a control/no test compound well in triplicate. The cells in cell culture plates were incubated with the compounds at 37° C. and 5% CO2 for 72 hours. Then 50 μl of Cell Titer Glo 2.0 reagent was added to each well of the cell culture plates. The contents were covered from light and mixed on an orbital shaker at room temperature for 10 min. Luminescence was recorded by a Synergy H1 Microplate Reader (Biotek, Winooski, VT). Cells were assessed as a percentage of DMSO only treated control cells. Curves were plotted and IC50 values were calculated using the GraphPad Prism 8 program based on a sigmoidal dose-response equation (4 parameter).

A further assay deals with T2, FGFR3 (V555M) (Homo sapiens, UniProt P22607, V555M).
T2 construct: made in house; host or cells: E. coli derived from BL21, infected with T7 phage
T2 sequence (P22607 23-806 V555M): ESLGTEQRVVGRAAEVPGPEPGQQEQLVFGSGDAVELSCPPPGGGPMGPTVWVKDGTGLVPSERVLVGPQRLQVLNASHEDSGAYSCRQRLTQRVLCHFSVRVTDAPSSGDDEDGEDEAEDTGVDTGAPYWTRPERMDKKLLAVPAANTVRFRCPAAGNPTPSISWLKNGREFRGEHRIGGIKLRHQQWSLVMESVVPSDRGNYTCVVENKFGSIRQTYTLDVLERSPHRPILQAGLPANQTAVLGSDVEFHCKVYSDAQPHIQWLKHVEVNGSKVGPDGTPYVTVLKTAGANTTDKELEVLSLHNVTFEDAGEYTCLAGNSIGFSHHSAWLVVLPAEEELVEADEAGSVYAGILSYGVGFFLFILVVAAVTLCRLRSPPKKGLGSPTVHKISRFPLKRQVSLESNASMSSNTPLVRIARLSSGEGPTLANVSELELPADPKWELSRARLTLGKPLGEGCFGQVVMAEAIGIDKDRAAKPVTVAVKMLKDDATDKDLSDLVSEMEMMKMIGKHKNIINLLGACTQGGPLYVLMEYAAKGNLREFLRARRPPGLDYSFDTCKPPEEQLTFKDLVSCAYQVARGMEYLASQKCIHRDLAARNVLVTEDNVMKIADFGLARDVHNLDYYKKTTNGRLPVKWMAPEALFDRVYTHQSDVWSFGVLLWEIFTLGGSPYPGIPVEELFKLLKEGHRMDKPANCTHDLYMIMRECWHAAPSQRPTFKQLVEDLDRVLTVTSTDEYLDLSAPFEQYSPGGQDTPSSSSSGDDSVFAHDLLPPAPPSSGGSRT
Put plainly: Kinase binding assay (kinase-tagged T7 phage, affinity beads, qPCR readout), FGFR3 (V555M). The conditions noted are these: FGFR binding data. In short, it runs like this: as §1

In assay [2] the test system is UM-UC-14 (Bladder Cancer), FGFR3(S249C). Put plainly: Cancer cell viability assay (Cell Titer-Glo), UM-UC-14. The note with it: UMUC14, UM-UC-14 cells, 72 hours. It is filed as cell-based.
Description: as §2, §3, §4, §5
For orientation: In ATP-based viability assays light output follows the ATP content of the culture.

The target of the next assay is T3, FGFR3 (Homo sapiens, UniProt P22607).
T3 construct: made in house; host or cells: E. coli derived from BL21, infected with T7 phage
T3 sequence (P22607 23-806): as the sequence (P22607 23-806 V555M) above, with M533V counted along it
Briefly: Kinase binding assay (kinase-tagged T7 phage, affinity beads, qPCR readout), FGFR3. The conditions noted are these: FGFR binding data. In short, it runs like this:
as §1

Assay [3] concerns KG-1 (Acute Myeloid Leukemia), FGFR1OP2-FGFR1 fusion. Briefly: Cancer cell viability assay (Cell Titer-Glo), KG-1. It is filed as cell-based. The conditions noted are these: Homo sapiens, KG-1 cells, 72 hours.
Description: as §2, §3, §4, §5

The next assay concerns the target T4, FGFR1 (Homo sapiens, UniProt P11362).
T4 construct: made in house; host or cells: E. coli derived from BL21, infected with T7 phage
Put plainly: Kinase binding assay (kinase-tagged T7 phage, affinity beads, qPCR readout), FGFR1. The conditions noted are these: FGFR binding data. In short, it runs like this: as §1

Assay [4] has as its system SNU-16 (Gastric Carcinoma), FGFR2 amplification. Briefly: Cancer cell viability assay (Cell Titer-Glo), SNU-16. It is filed as cell-based. The note with it: Homo sapiens, SNU-16 cells, 72 hours, read-out: SNU16 FGFR2 (IC50 nM). In short, it runs like this:
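Cells seeded at 10,000/well in RPMI1640 with 10% FBS, then exposed 72 h at 37° C. to a 9-point 10-fold dilution series from 30 μM, in triplicate. Viability read as ATP luminescence (CellTiter-Glo 2.0) as percent of DMSO control; IC50 from 4-parameter sigmoidal fit.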

For 14 compounds, Kd and IC50 results are on record in US20240190849A1, “AMINOPYRIMIDINE COMPOUNDS AND METHODS OF THEIR USE” (TYRA BIOSCIENCES, INC., priority 2021, published 2024).

SMILES strings stand for the structures. Where only a bound is given, the exact number is not on record here.

T1 sequence (P21802 22-821): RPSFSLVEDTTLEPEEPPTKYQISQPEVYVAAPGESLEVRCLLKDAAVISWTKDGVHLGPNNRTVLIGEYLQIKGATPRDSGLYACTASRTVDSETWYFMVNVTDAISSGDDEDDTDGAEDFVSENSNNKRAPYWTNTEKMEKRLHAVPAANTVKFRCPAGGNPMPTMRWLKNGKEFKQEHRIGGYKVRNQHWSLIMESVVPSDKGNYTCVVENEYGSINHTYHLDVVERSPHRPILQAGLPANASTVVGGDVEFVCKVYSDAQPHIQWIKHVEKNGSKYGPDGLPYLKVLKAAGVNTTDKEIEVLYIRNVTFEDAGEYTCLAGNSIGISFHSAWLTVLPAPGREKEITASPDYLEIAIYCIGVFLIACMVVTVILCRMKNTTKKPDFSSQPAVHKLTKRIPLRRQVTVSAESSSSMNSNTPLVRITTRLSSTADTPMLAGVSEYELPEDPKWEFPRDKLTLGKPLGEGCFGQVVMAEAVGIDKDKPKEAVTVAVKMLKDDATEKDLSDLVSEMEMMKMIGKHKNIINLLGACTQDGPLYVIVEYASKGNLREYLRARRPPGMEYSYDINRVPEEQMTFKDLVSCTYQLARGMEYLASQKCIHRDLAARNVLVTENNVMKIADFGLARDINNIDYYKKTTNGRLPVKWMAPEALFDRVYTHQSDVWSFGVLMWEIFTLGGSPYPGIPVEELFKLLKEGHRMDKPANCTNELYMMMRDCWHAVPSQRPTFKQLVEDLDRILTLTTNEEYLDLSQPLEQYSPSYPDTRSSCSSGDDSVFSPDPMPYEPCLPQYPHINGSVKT
T4 sequence (P11362 22-822): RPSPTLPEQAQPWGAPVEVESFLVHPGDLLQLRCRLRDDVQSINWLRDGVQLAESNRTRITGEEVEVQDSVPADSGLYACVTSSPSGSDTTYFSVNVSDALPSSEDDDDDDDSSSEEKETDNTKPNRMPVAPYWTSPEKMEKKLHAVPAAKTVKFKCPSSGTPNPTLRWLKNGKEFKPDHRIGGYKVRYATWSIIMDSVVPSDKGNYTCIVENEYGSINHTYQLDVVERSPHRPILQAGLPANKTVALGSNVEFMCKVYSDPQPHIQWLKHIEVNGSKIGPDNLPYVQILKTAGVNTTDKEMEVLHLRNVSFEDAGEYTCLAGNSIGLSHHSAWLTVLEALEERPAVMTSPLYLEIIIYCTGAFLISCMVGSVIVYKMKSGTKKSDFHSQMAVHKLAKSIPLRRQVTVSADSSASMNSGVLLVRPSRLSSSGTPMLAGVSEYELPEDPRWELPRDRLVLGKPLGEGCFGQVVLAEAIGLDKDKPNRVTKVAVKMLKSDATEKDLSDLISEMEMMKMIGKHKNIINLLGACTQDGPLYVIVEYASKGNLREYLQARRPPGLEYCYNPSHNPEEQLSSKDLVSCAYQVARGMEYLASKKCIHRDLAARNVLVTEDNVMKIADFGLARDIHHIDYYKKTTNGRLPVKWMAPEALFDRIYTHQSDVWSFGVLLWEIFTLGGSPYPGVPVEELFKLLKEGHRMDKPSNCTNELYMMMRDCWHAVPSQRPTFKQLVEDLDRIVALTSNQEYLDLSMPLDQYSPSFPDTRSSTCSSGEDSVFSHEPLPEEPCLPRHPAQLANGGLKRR

In general, Kd refers to the free concentration of one partner at which half of the binding sites on the other are occupied at equilibrium, for simple one-to-one binding. The term IC50 denotes the midpoint of a concentration-inhibition curve. On to `C=CC(=O)Nc1ccc2c(ccn2-c2nc(Nc3cnn(C)c3)ncc2Cl)c1` [Example 2, N-[1-[5-chloro-2-[(1-methylpyrazol-4-yl)amino]pyrimidin-4-yl]indol-5-yl]prop-2-enamide], for which the Kd at FGFR2, on FGFR3 (V555M), at FGFR3 and on FGFR1 was 0.1 to 100 nM in each case. Also, the IC50 in assay [1], in assay [2] and in assay [3] was 0.1 to 100 nM in each case.

For `C=CC(=O)Nc1ccc2c(ccn2-c2nc(Nc3cccc(OCCN4CCOCC4)c3)ncc2Cl)c1C` [Example 7, N-[1-[5-chloro-2-[3-(2-morpholinoethoxy)anilino]pyrimidin-4-yl]-4-methyl-indol-5-yl]prop-2-enamide], the Kd at FGFR2 lay within 100 to 250 nM; at FGFR3 (V555M), 0.1 to 100 nM; on FGFR3, 100 to 250 nM; at FGFR1, 0.1 to 100 nM. Further, the IC50 in assay [1] is more than 1000 nM; in assay [2], more than 1000 nM; in assay [3] it was 250 to 1000 nM.

Regarding `C=CC(=O)Nc1ccc2c(c1)c(C)cn2-c1nc(Nc2cnn(C)c2)ncc1C` [Example 8, N-[3-Methyl-1-[5-methyl-2-[(1-methylpyrazol-4-yl)amino]pyrimidin-4-yl]indol-5-yl]prop-2-enamide], the equilibrium dissociation constant (Kd) on FGFR2, at FGFR3 (V555M), on FGFR3 and at FGFR1 was 0.1 to 100 nM in each case. Also, the half-maximal inhibitory concentration (IC50) in assay [1], in assay [2] and in assay [3] was 0.1 to 100 nM in each case.

Consider `C=CC(=O)Nc1ccc2c(c1)c(C)cn2-c1nc(Nc2cccc(OCCN3CCOCC3)c2)ncc1C` [Example 9, N-[3-methyl-1-[5-methyl-2-[3-(2-morpholinoethoxy)anilino]pyrimidin-4-yl]indol-5-yl]prop-2-enamide], for which the Kd at FGFR2, at FGFR3 (V555M), on FGFR3 and on FGFR1 was 0.1 to 100 nM throughout. For the same compound, the IC50 in assay [1], in assay [2] and in assay [3] was 0.1 to 100 nM throughout.

In the case of `C=CC(=O)Nc1ccc2c(ccn2-c2nc(Nc3ccc(OCCN4CCOCC4)cc3)ncc2Cl)c1` [Example 10, N-[1-[5-chloro-2-[4-(2-morpholinoethoxy)anilino]pyrimidin-4-yl]indol-5-yl]prop-2-enamide], the dissociation constant Kd on FGFR2 was in the range of 100 to 250 nM; on FGFR3 (V555M) it was 0.1 to 100 nM; on FGFR3 it was 0.1 to 100 nM; at FGFR1, 100 to 250 nM. Moreover, the 50% inhibitory concentration (IC50) in assay [1], in assay [2] and in assay [3] was 0.1 to 100 nM each time.

For `C=CC(=O)Nc1ccc2c(c1)c(C)cn2-c1nc(Nc2ccc(OCCN3CCOCC3)cc2)ncc1C` [Example 19, N-[3-methyl-1-[5-methyl-2-[4-(2-morpholinoethoxy)anilino]pyrimidin-4-yl]indol-5-yl]prop-2-enamide], the Kd at FGFR2, at FGFR3 (V555M), at FGFR3 and at FGFR1 was 0.1 to 100 nM in each case. Further, the 50% inhibitory concentration (IC50) in assay [1], in assay [2] and in assay [3] was 0.1 to 100 nM throughout.

`C=CC(=O)Nc1ccc2c(c1)c(C)cn2-c1nc(Nc2ccc(N3CCOCC3)c(F)c2)ncc1Cl` [Example 22, N-[1-[5-chloro-2-(3-fluoro-4-morpholino-anilino)pyrimidin-4-yl]-3-methyl-indol-5-yl]prop-2-enamide]: the Kd at FGFR2, at FGFR3 (V555M), at FGFR3 and at FGFR1 was 0.1 to 100 nM in each case. Moreover, the half-inhibitory concentration (IC50) in assay [1], in assay [2] and in assay [3] was 0.1 to 100 nM in each case.

Turning to `C=CC(=O)Nc1ccc2c(c1)c(C)cn2-c1nc(Nc2ccc(OC)c(OC)c2)ncc1Cl` [Example 23, N-[1-[5-chloro-2-(3,4-dimethoxyanilino)pyrimidin-4-yl]-3-methyl-indol-5-yl]prop-2-enamide], the Kd on FGFR2, at FGFR3 (V555M), on FGFR3 and on FGFR1 was 0.1 to 100 nM in each case. The 50% inhibitory concentration (IC50) in assay [1], in assay [2] and in assay [3] was 0.1 to 100 nM each time.

`C=CC(=O)Nc1ccc2c(c1)c(C)cn2-c1nc(Nc2ccc(N3CCOCC3)cc2)ncc1Cl` [Example 24, N-[3-methyl-1-[5-chloro-2-(4-morpholinoanilino)pyrimidin-4-yl]indol-5-yl]prop-2-enamide]: the Kd on FGFR2, on FGFR3 (V555M), on FGFR3 and on FGFR1 was 0.1 to 100 nM throughout. For the same compound, the 50% inhibitory concentration (IC50) in assay [1], in assay [2] and in assay [3] was 0.1 to 100 nM in each case.

On to `C=CC(=O)Nc1ccc2c(c1)c(C)cn2-c1nc(Nc2cnn(C)c2)ncc1Cl` [Example 25, N-[1-[5-chloro-2-[(1-methylpyrazol-4-yl)amino]pyrimidin-4-yl]-3-methyl-indol-5-yl]prop-2-enamide], for which the dissociation constant (Kd) at FGFR2, at FGFR3 (V555M), on FGFR3 and on FGFR1 was 0.1 to 100 nM throughout. The 50% inhibitory concentration (IC50) in assay [1], in assay [2] and in assay [3] was 0.1 to 100 nM throughout.

For the compound `C=CC(=O)Nc1ccc2c(c1)c(C)cn2-c1nc(Nc2cn(C)nc2OC)ncc1Cl` [Example 26, N-[1-[5-chloro-2-[(3-methoxy-1-methyl-pyrazol-4-yl)amino]pyrimidin-4-yl]-3-methyl-indol-5-yl]prop-2-enamide], the Kd on FGFR2, on FGFR3 (V555M), on FGFR3 and on FGFR1 was 0.1 to 100 nM throughout. The half-inhibitory concentration (IC50) in assay [1] was 100 to 250 nM; in assay [2] it was 0.1 to 100 nM; in assay [3], 0.1 to 100 nM.

Consider `C=CC(=O)Nc1ccc2c(-c3ccnc(Nc4ccc(N5CCOCC5)cc4)n3)cn(C)c2c1` [Example 53, N-[1-Methyl-3-[2-(4-morpholino-anilino)pyrimidin-4-yl]indol-6-yl]prop-2-enamide], for which the IC50 in assay [4], in assay [2] and in assay [3] was 0.1 to 100 nM in each case. Moreover, the dissociation constant Kd at FGFR2, on FGFR3 (V555M), at FGFR3 and at FGFR1 was 0.1 to 100 nM in each case.

As for `C=CC(=O)Nc1ccc2c(c1)c(C)cn2-c1nc(Nc2cnn(C)c2C)ncc1F` [Example 146, N-[1-[2-[(1,5-dimethylpyrazol-4-yl)amino]-5-fluoro-pyrimidin-4-yl]-3-methyl-indol-5-yl]prop-2-enamide], the IC50 in assay [4], in assay [2] and in assay [3] was 0.1 to 100 nM throughout. Further, the Kd at FGFR2, at FGFR3 (V555M), at FGFR3 and on FGFR1 was 0.1 to 100 nM in each case.

For `C=CC(=O)Nc1ccc2c(c1)c(C)cn2-c1nc(Nc2cnn(CC(C)(C)O)c2)ncc1F` [Example 181, N-[1-[5-fluoro-2-[[1-(2-hydroxy-2-methyl-propyl)pyrazol-4-yl]amino]pyrimidin-4-yl]-3-methyl-indol-5-yl]prop-2-enamide], the IC50 in assay [4], in assay [1] and in assay [2] was 0.1 to 100 nM in each case. For the same compound, the equilibrium dissociation constant (Kd) on FGFR2, at FGFR3 (V555M), at FGFR3 and at FGFR1 was 0.1 to 100 nM each time.
